Results taken from ChEMBL document CHEMBL1909046, “DrugMatrix in vitro pharmacology data”.

Experiments:
[1] = molecular target: Vascular endothelial growth factor receptor 1 (Homo sapiens, UniProt P17948); assay type: cell-based; conditions: huvec; further: in other assays of this panel Not Active means under 50% inhibition at 10 µM
[2] = DRUGMATRIX: Sodium/nucleoside co-transporter radioligand binding (ligand: nitrobenzylthioinosine); assay type: cell membranes, Cavia porcellus, Dunkin-Hartley, Cerebral cortex, Membrane; conditions: Not Active = under 50% inhibition at 10 µM
[3] = molecular target: T1, Receptor-type tyrosine-protein phosphatase C (Homo sapiens, UniProt P08575); set-up: species or system Escherichia coli;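 further: inhibition of CD45 enzyme activity measured using DiFMUP as substrate; in other assays of this panel Not Active means under 50% inhibition at 10 µM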
T1 sequence (P08575 whole entry): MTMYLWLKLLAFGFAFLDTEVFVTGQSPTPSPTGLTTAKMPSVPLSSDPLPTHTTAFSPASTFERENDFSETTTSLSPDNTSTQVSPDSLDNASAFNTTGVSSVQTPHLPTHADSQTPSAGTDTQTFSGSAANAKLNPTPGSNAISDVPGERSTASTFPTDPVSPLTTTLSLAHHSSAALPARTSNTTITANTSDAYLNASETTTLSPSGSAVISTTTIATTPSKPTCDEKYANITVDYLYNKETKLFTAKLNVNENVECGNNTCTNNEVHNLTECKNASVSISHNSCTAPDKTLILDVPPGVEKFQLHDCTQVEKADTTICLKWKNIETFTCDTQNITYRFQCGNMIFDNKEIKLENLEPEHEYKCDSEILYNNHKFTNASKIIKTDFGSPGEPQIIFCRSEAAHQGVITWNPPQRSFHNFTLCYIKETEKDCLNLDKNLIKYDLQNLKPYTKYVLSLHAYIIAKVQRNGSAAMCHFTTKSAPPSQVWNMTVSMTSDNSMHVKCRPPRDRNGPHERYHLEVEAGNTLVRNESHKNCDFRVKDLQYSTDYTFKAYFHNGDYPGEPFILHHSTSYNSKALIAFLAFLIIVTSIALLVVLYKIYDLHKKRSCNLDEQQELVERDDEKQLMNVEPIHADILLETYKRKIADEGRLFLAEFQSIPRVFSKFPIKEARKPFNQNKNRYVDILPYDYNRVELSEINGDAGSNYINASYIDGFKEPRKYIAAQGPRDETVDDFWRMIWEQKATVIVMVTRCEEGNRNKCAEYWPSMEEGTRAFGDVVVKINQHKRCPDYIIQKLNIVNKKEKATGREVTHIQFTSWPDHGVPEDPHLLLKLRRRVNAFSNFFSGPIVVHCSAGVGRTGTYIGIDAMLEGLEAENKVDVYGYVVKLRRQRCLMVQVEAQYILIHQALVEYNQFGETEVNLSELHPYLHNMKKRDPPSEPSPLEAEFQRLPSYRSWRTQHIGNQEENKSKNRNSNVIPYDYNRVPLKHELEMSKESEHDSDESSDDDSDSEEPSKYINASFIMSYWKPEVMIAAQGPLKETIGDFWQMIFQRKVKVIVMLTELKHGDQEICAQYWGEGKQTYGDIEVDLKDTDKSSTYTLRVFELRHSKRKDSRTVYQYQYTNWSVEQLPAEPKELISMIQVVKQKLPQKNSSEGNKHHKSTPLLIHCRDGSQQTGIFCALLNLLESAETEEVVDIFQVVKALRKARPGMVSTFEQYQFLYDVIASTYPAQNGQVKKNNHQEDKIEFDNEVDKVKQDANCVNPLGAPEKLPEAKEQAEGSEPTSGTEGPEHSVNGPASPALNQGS

[4] = molecular target: T2, Alpha-1B adrenergic receptor (Rattus norvegicus, UniProt P15823); assay: DRUGMATRIX: Alpha-1B adrenergic receptor radioligand binding (ligand: prazosin); assay type: cell membranes, Wistar, Liver, Membrane; conditions: Not Active = under 50% inhibition at 10 µM
T2 sequence (P15823 whole entry): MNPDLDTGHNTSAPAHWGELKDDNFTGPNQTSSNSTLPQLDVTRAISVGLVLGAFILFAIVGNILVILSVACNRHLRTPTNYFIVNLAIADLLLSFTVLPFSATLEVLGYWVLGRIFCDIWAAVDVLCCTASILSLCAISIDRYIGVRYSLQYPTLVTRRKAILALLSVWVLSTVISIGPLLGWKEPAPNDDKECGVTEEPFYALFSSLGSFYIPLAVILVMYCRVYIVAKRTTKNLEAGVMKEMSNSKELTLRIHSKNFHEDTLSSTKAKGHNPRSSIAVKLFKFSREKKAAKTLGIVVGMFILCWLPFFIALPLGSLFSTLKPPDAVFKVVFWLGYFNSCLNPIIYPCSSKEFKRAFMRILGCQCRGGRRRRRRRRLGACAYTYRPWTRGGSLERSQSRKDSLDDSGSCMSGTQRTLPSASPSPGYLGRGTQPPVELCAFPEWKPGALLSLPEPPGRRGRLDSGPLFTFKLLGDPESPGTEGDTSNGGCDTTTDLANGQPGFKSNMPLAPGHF

[5] = molecular target: cGMP-specific 3',5'-cyclic phosphodiesterase (Homo sapiens, UniProt O76074); assay: DRUGMATRIX: Phosphodiesterase PDE5 enzyme inhibition (substrate: [3H]cGMP + cGMP); assay type: tissue-based; conditions: platelet; Not Active = under 50% inhibition at 10 µM
Neutrophil elastase = molecular target: T3, Neutrophil elastase (Homo sapiens, UniProt P08246); assay type: tissue-based;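 further: inhibition of neutrophil elastase enzyme activity, measured with a p-nitroanilide-linked peptide substrate; in other assays of this panel Not Active means under 50% inhibition at 10 µM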
T3 sequence (P08246 whole entry): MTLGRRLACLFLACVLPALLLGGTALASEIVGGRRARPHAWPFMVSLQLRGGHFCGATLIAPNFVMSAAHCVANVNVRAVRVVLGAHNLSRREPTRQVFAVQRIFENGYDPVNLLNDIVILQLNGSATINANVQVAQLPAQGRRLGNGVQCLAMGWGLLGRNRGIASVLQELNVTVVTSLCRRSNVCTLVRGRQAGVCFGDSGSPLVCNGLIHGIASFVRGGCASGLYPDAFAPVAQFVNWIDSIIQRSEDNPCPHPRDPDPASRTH

Melanocortin receptor 5 = Melanocortin receptor 5 (Homo sapiens, UniProt P33032); assay type: cell membranes, HEK293, Membrane; conditions: for Ki: read-out: Ki; on all read-outs here: in other assays of this panel Not Active means under 50% inhibition at 10 µM
Vasopressin V1a receptor = Vasopressin V1a receptor (Homo sapiens, UniProt P37288); assay type: cell membranes, Membrane; conditions: hek293; further: in other assays of this panel Not Active means under 50% inhibition at 10 µM
Vasopressin V1a receptor, sequence (P37288 whole entry): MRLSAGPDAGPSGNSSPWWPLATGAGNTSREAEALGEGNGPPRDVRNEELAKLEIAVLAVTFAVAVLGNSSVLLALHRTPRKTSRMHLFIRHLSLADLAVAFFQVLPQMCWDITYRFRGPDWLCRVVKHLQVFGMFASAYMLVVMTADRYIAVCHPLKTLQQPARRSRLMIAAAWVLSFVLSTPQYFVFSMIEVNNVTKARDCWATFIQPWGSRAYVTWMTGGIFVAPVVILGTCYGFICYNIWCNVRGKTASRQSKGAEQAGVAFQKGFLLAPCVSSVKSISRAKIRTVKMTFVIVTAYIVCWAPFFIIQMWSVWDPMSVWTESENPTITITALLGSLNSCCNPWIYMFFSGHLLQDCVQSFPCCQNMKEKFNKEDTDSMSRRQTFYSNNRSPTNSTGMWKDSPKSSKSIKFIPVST

Vascular endothelial growth factor receptor 1, sequence (P17948 whole entry): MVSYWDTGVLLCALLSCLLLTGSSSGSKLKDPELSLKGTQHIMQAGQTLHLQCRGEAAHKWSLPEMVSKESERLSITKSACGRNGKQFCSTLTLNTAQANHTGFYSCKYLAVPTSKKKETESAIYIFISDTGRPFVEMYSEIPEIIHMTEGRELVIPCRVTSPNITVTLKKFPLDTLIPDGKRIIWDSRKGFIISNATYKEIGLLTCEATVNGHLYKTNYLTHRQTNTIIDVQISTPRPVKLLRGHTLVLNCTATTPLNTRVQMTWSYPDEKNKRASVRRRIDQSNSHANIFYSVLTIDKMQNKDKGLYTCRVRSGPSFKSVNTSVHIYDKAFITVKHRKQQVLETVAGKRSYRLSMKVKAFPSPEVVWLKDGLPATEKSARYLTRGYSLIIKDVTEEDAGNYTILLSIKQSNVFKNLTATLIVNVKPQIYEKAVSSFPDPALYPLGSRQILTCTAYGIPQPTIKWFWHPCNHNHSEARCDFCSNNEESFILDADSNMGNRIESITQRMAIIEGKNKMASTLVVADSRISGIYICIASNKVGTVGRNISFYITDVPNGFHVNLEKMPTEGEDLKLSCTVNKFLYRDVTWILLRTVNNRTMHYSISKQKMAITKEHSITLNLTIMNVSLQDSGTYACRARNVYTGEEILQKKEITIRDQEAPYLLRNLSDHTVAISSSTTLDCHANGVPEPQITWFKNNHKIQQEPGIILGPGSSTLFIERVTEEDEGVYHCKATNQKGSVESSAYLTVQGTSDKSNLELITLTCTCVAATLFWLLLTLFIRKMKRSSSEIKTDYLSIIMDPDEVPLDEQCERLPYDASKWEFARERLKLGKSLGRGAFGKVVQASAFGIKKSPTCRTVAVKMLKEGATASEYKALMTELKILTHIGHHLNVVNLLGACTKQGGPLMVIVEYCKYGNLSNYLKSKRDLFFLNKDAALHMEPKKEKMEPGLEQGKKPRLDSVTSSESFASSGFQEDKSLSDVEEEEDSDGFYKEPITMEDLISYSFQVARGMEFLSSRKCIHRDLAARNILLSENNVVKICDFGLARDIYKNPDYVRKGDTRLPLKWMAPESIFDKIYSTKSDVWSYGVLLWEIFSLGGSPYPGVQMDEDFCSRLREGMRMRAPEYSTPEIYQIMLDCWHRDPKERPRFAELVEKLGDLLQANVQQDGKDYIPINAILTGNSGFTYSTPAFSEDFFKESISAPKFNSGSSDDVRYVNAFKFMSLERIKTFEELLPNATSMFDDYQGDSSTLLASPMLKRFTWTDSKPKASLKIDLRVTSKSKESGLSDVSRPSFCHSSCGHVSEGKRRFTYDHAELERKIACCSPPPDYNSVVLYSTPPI
Melanocortin receptor 5, sequence (P33032 whole entry): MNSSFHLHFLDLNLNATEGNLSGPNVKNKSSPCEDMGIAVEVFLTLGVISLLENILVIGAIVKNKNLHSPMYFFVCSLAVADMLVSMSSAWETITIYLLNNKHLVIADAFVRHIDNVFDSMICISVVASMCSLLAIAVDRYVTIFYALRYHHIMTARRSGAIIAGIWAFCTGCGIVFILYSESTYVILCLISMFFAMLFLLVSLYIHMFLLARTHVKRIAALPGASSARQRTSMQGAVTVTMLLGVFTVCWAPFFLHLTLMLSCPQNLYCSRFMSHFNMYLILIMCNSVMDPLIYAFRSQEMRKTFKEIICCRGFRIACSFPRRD

Structure (SMILES)	IC50 [1]	IC50 [2]	Ki [2]	IC50 [3]	IC50 [4]	IC50 [5]	IC50 (Neutrophil elastase)	IC50 (Melanocortin receptor 5; hek293)	IC50 (Vasopressin V1a receptor)	IC50 (Melanocortin receptor 5; read-out: IC50) [µM]	Ki (Melanocortin receptor 5) [µM]	IC50 ([2]; read-out: IC50) [µM]	Ki ([2]; read-out: Ki) [µM]
CC(C)(C)NC(=O)[C@@H]1C[C@@H]2CCCC[C@@H]2CN1C[C@@H](O)[C@H](Cc1ccccc1)NC(=O)[C@H](CC(N)=O)NC(=O)c1ccc2ccccc2n1	Not Active	Not Active	Not Active	Not Active	Not Active	Not Active	Not Active	Not Active	–	–	–	–	–
CC(=O)[C@@]1(O)CC[C@H]2[C@@H]3C[C@H](C)C4=CC(=O)CC[C@]4(C)[C@H]3CC[C@@]21C	Not Active	Not Active	Not Active	Not Active	Not Active	Not Active	Not Active	Not Active	Not Active	–	–	–	–
N[C@@H](Cc1ccc(N(CCCl)CCCl)cc1)C(=O)O	Not Active	Not Active	Not Active	Not Active	Not Active	Not Active	Not Active	Not Active	Not Active	–	–	–	–
CCCCc1oc2ccccc2c1C(=O)c1cc(I)c(OCCN(CC)CC)c(I)c1 [AMIODARONE]	Not Active	–	–	Not Active	–	Not Active	Not Active	–	Not Active	9.5	8.91	–	–
OCCN(CCO)c1nc(N2CCCCC2)c2nc(N(CCO)CCO)nc(N3CCCCC3)c2n1 [DIPYRIDAMOLE]	Not Active	–	–	Not Active	Not Active	–	Not Active	Not Active	Not Active	–	–	0.083	0.029
Cc1oncc1C(=O)Nc1ccc(C(F)(F)F)cc1 [LEFLUNOMIDE]	Not Active	–	–	Not Active	Not Active	Not Active	Not Active	Not Active	Not Active	–	–	15.1	5.16
c1ccc([C@H]2CN3CCSC3=N2)cc1 [LEVAMISOLE]	Not Active	Not Active	Not Active	Not Active	Not Active	Not Active	Not Active	Not Active	Not Active	–	–	–	–
N[C@@H](Cc1ccc(O)c(O)c1)C(=O)O [LEVODOPA]	Not Active	Not Active	Not Active	Not Active	Not Active	Not Active	Not Active	Not Active	Not Active	–	–	–	–
N[C@@H](Cc1cc(I)c(Oc2ccc(O)c(I)c2)c(I)c1)C(=O)O [LIOTHYRONINE]	Not Active	–	–	Not Active	Not Active	Not Active	Not Active	Not Active	Not Active	–	–	–	–
O=NN(CCCl)C(=O)NC1CCCCC1 [LOMUSTINE]	Not Active	Not Active	Not Active	Not Active	Not Active	Not Active	Not Active	Not Active	Not Active	–	–	–	–
CCOC(=O)N1CCC(=C2c3ccc(Cl)cc3CCc3cccnc32)CC1 [LORATADINE]	Not Active	Not Active	Not Active	Not Active	Not Active	Not Active	Not Active	Not Active	Not Active	–	–	–	–
Cn1ccnc1S [METHIMAZOLE]	Not Active	Not Active	Not Active	Not Active	Not Active	Not Active	Not Active	Not Active	Not Active	–	–	–	–
CC[C@@H](CO)NC(=O)[C@@H]1C=C2c3cccc4[nH]cc(c34)C[C@H]2N(C)C1 [METHYLERGONOVINE]	Not Active	Not Active	Not Active	Not Active	Not Active	Not Active	Not Active	Not Active	Not Active	–	–	–	–
COc1nc(C)nc(Cl)c1NC1=NCCN1 [MOXONIDINE]	Not Active	Not Active	Not Active	Not Active	Not Active	Not Active	Not Active	Not Active	Not Active	–	–	–	–
COc1c(C)c2c(c(O)c1C/C=C(\C)CCC(=O)O)C(=O)OC2 [MYCOPHENOLIC ACID]	Not Active	Not Active	Not Active	Not Active	Not Active	Not Active	Not Active	Not Active	Not Active	–	–	–	–
O=c1ncn2nc(Sc3ccc(F)cc3F)ccc2c1-c1c(Cl)cccc1Cl [NEFLAMAPIMOD]	Not Active	Not Active	Not Active	Not Active	Not Active	Not Active	Not Active	Not Active	Not Active	–	–	–	–
CN1CCN(CCCN2c3ccccc3Sc3ccc(Cl)cc32)CC1 [PROCHLORPERAZINE]	Not Active	–	–	Not Active	–	Not Active	Not Active	Not Active	Not Active	–	–	–	–
Cc1nc2n(c(=O)c1CCN1CCC(c3noc4cc(F)ccc34)CC1)CCCC2 [RISPERIDONE]	Not Active	–	–	Not Active	–	Not Active	Not Active	Not Active	Not Active	–	–	–	–
CC/C(=C(\c1ccccc1)c1ccc(OCCN(C)C)cc1)c1ccccc1 [TAMOXIFEN]	Not Active	–	–	Not Active	–	Not Active	Not Active	–	Not Active	26.5	24.9	–	–
CC(C)N1CCN(c2ccc(OCC3COC(Cn4cncn4)(c4ccc(Cl)cc4Cl)O3)cc2)CC1 (stereo not drawn) [TERCONAZOLE]	Not Active	–	–	Not Active	–	Not Active	Not Active	Not Active	Not Active	–	–	12.4	4.24
CCCOc1ccccc1-c1nc2nn[nH]c2c(=O)[nH]1 [ZAPRINAST]	Not Active	Not Active	Not Active	Not Active	Not Active	–	Not Active	Not Active	Not Active	–	–	–	–
